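96-well plates; 48 h exposure; 5 concentrations. Endpoints by linear interpolation between flanking doses. Not reached: highest tested concentration assigned. GI50 = concentration required for 50% inhibition of growth.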 Calls of active or inactive are those of the source. Cut-off read from the data, not from the text of the source: active = GI50 up to about 1.1 µM and inactive = higher. Numbered stars: 1 amine (or outer) side, 2 acyl side, 3 side chain; on linkers, the order of the positions; unused ones are H or OH. Square brackets hold non-standard residues; d marks the D form. Peptide text beside a SMILES is read from it. * marks the point of attachment. X30 = CC(=O)N(C)SCC(N[*:1])C(=O)[*:2]; Cbz = O=C(OCc1ccccc1)*; Bn = c1ccc(C*)cc1
How the values were obtained:
Experiment in all cases: growth of human tumour cells (NCI), 48 h
[1] = system: EKVX
[2] = system: OVCAR-4
[3] = system: SN12C
[4] = system: MDA-MB-231
[5] = system: SW-620
[6] = system: A498
[7] = system: UO-31
[8] = system: SNB-75
[9] = system: M14
[10] = system: OVCAR-3
[11] = system: OVCAR-5
[12] = system: TK-10
[13] = system: COLO 205
[14] = system: PC-3
[15] = system: DU-145
[16] = system: SF-295
[17] = system: NCI-H226
[18] = system: NCI-H522
[19] = system: CCRF-CEM

Row | Compound | GI50 [1] | GI50 [2] | GI50 [3] | GI50 [4] | GI50 [5] | GI50 [6] | GI50 [7] | GI50 [8] | GI50 [9] | GI50 [10] | GI50 [11] | GI50 [12] | GI50 [13] | GI50 [14] | GI50 [15] | GI50 [16] | GI50 [17] | GI50 [18] | GI50 [19]
1 | N#Cc1c(Cl)cccc1Oc1ccc(S(=O)(=O)/N=C(\NN)Nc2ccc(Cl)cc2)cc1 | 23.3 µM (inactive) | 26.4 µM (inactive) | 25.2 µM (inactive) | 27.4 µM (inactive) | 41.9 µM (inactive) | 32.4 µM (inactive) | 25.5 µM (inactive) | 21.6 µM (inactive) | 22.9 µM (inactive) | 19.7 µM (inactive) | 28.5 µM (inactive) | 26.9 µM (inactive) | 15.6 µM (inactive) | 23.6 µM (inactive) | 25.5 µM (inactive) | 24.2 µM (inactive) | 17.4 µM (inactive) |  | 
2 | CCc1n[nH]c(=O)n1CC | > 100 µM (inactive) | > 100 µM (inactive) | > 100 µM (inactive) | > 100 µM (inactive) | > 100 µM (inactive) | > 100 µM (inactive) | > 100 µM (inactive) |  |  | > 100 µM (inactive) | > 100 µM (inactive) | > 100 µM (inactive) | > 100 µM (inactive) |  | > 100 µM (inactive) | > 100 µM (inactive) | > 100 µM (inactive) | > 100 µM (inactive) | > 100 µM (inactive)
3 | CCOC(=O)c1c(N)sc2c1C(C)(C(=O)OCC)CC2 (stereo unspecified) | 38.6 µM (inactive) |  | > 100 µM (inactive) | > 100 µM (inactive) | > 100 µM (inactive) | 18.2 µM (inactive) | 63.8 µM (inactive) | 88.3 µM (inactive) | > 100 µM (inactive) |  | > 100 µM (inactive) | > 100 µM (inactive) | > 100 µM (inactive) | > 100 µM (inactive) |  |  | > 100 µM (inactive) |  | 
4 | N#Cc1nc(-c2ccccc2O)oc1N | 48.5 µM (inactive) |  | 81.1 µM (inactive) | > 100 µM (inactive) | 65 µM (inactive) | 80.9 µM (inactive) |  |  | > 100 µM (inactive) |  | > 100 µM (inactive) | 63.8 µM (inactive) |  | 91.2 µM (inactive) | > 100 µM (inactive) |  |  |  | 16.4 µM (inactive)
5 | C[n+]1cccc2ccc(OC(=O)c3ccccc3)cc21 | > 100 µM (inactive) | > 100 µM (inactive) | > 100 µM (inactive) |  | > 100 µM (inactive) | > 100 µM (inactive) | > 100 µM (inactive) | > 100 µM (inactive) | > 100 µM (inactive) | > 100 µM (inactive) | > 100 µM (inactive) | > 100 µM (inactive) | > 100 µM (inactive) |  | > 100 µM (inactive) | > 100 µM (inactive) | > 100 µM (inactive) | > 100 µM (inactive) | > 10 µM (inactive)
6 | COc1cc(/C=C2\C(=O)N(c3ccccc3)C(c3ccccc3)S2(=O)=O)cc(OC)c1OC (stereo unspecified) | 24.2 µM (inactive) | 27.5 µM (inactive) | 39.4 µM (inactive) | 97.5 µM (inactive) | 51.3 µM (inactive) | > 100 µM (inactive) | 22.9 µM (inactive) |  | 35.2 µM (inactive) | 36 µM (inactive) | > 100 µM (inactive) | 65 µM (inactive) | 23.3 µM (inactive) |  | 37.9 µM (inactive) | > 100 µM (inactive) | 46.8 µM (inactive) | 29.7 µM (inactive) | 10.6 µM (inactive)
7 | CC1=CC[C@@]2(CO)[C@@H]([C@@H]1C)[C@H]1CC[C@@H]3[C@@]4(C)CC[C@H](O)C(C)(C)[C@@H]4CC[C@@]3(C)[C@]1(C)C[C@@H]2O | 33.3 µM (inactive) | 20.8 µM (inactive) | 75.3 µM (inactive) |  | 35.6 µM (inactive) | 24 µM (inactive) | 53.3 µM (inactive) |  | 28.2 µM (inactive) | 31.5 µM (inactive) | > 100 µM (inactive) | 18.4 µM (inactive) | 17.3 µM (inactive) | 13.3 µM (inactive) | 23 µM (inactive) | 17 µM (inactive) | 27.2 µM (inactive) | 8.91 µM (inactive) | 41.1 µM (inactive)
8 | COc1ccc(/C=N/NC(=S)Nc2cc(C)ccc2OC)cc1 | 20.8 µM (inactive) | 23.8 µM (inactive) | 25.1 µM (inactive) |  | 34.7 µM (inactive) | 35.2 µM (inactive) | 37.9 µM (inactive) | > 100 µM (inactive) | 23.1 µM (inactive) | 40.2 µM (inactive) | 16.9 µM (inactive) |  | 17 µM (inactive) | 34.4 µM (inactive) | 45 µM (inactive) | 37.4 µM (inactive) |  | 19.3 µM (inactive) | 22.3 µM (inactive)
9 | COc1ccc(-c2cc(-c3ccccc3)c3c(n2)-c2ccccc2NC(=O)C3)cc1 | 40.3 µM (inactive) | 3.64 µM (inactive) | 58.6 µM (inactive) | 25.4 µM (inactive) | > 100 µM (inactive) | > 100 µM (inactive) | > 100 µM (inactive) | 1.19 µM (inactive) | 71 µM (inactive) | 30.1 µM (inactive) | > 100 µM (inactive) | 41.8 µM (inactive) | > 100 µM (inactive) | 28.3 µM (inactive) | > 100 µM (inactive) | 47.5 µM (inactive) | 58.2 µM (inactive) |  | 
10 | COc1ccc(C)cc1Nc1nnc(-c2ccccc2N)s1 | 24.7 µM (inactive) | 26.1 µM (inactive) | 32 µM (inactive) |  | 36.1 µM (inactive) | 74.8 µM (inactive) | 36.8 µM (inactive) | 55 µM (inactive) | 40.2 µM (inactive) | 37.5 µM (inactive) | 89.9 µM (inactive) |  | 36.8 µM (inactive) | 35 µM (inactive) | > 100 µM (inactive) | 34 µM (inactive) | 43 µM (inactive) | 20.2 µM (inactive) | 32.3 µM (inactive)
11 | CN(CC#N)C(=O)Cc1ccc([N+](=O)[O-])cc1 | > 10 µM (inactive) | > 10 µM (inactive) | > 10 µM (inactive) | > 10 µM (inactive) | > 10 µM (inactive) | > 10 µM (inactive) | > 10 µM (inactive) |  | > 10 µM (inactive) | > 10 µM (inactive) | > 10 µM (inactive) | > 10 µM (inactive) | > 10 µM (inactive) | > 10 µM (inactive) | > 10 µM (inactive) | > 10 µM (inactive) | > 10 µM (inactive) |  | > 10 µM (inactive)
12 | N#CC(C#N)=CNC(=S)Nc1ccc(S(=O)(=O)Nc2nccs2)cc1 | > 100 µM (inactive) | > 100 µM (inactive) | > 100 µM (inactive) | > 100 µM (inactive) | > 100 µM (inactive) | > 100 µM (inactive) | > 100 µM (inactive) | > 100 µM (inactive) | > 100 µM (inactive) | > 100 µM (inactive) | > 100 µM (inactive) | > 100 µM (inactive) | > 100 µM (inactive) |  | > 100 µM (inactive) | > 100 µM (inactive) | > 100 µM (inactive) |  | 
13 | COC(=O)c1ccc(OCCn2nnc(C(=O)NN)c2C(=O)NN)cc1 | > 100 µM (inactive) | > 100 µM (inactive) | > 100 µM (inactive) | > 100 µM (inactive) |  |  | > 100 µM (inactive) |  | > 100 µM (inactive) | > 100 µM (inactive) | > 100 µM (inactive) | > 100 µM (inactive) | > 100 µM (inactive) | > 100 µM (inactive) | > 100 µM (inactive) | > 100 µM (inactive) |  |  | > 100 µM (inactive)
14 | O=C1/C(=C/C=C/c2ccccc2)N=C(c2ccccc2)N1c1ccc(S(=O)(=O)Nc2nccs2)cc1 | 26.3 µM (inactive) | 30 µM (inactive) | 30 µM (inactive) |  | 35.1 µM (inactive) | 32.1 µM (inactive) | 15.6 µM (inactive) | 45.1 µM (inactive) | 26.4 µM (inactive) | 21.1 µM (inactive) | 31.6 µM (inactive) | 30.8 µM (inactive) | 18.8 µM (inactive) | 36.4 µM (inactive) | 37.8 µM (inactive) | 33.5 µM (inactive) | 20 µM (inactive) | 14.3 µM (inactive) | 32.4 µM (inactive)
15 | NS(=O)(=O)c1nnc(NC(=O)c2ccccc2)s1 | > 100 µM (inactive) | 0.536 µM (active) | > 100 µM (inactive) | > 100 µM (inactive) | > 100 µM (inactive) | > 100 µM (inactive) | > 100 µM (inactive) |  | > 100 µM (inactive) | > 100 µM (inactive) | > 100 µM (inactive) | > 100 µM (inactive) | > 100 µM (inactive) |  | > 100 µM (inactive) | > 100 µM (inactive) | > 100 µM (inactive) | > 100 µM (inactive) | 
16 | CC(=O)N(C)SCC(NC(=O)C(Cc1ccccc1)NC(=O)OCc1ccccc1)C(=O)NC(Cc1ccccc1)C(=O)NC(Cc1c[nH]c2ccccc12)C(=O)NC(CCCCNC(=O)OCc1ccccc1)C(=O)NC(C(=O)NC(CSN(C)C(C)=O)C(=O)NC(C(N)=O)C(C)OCc1ccccc1)C(C)OCc1ccccc1 (stereo unspecified) (Cbz-F[X30]FWK(Cbz)T(Bn)[X30]T(Bn)-NH2; configuration not given here) | > 100 µM (inactive) | > 100 µM (inactive) | > 100 µM (inactive) | 35.3 µM (inactive) | > 100 µM (inactive) |  | > 100 µM (inactive) | > 100 µM (inactive) | > 100 µM (inactive) | > 100 µM (inactive) | > 100 µM (inactive) | > 100 µM (inactive) | > 100 µM (inactive) | > 100 µM (inactive) | > 100 µM (inactive) | > 100 µM (inactive) | > 100 µM (inactive) |  | > 100 µM (inactive)

Reference: ChEMBL document CHEMBL1201862, “PubChem BioAssay data set” (2004)
